From PMC3608651, “A Broad Profile of Co-Dominant Epitopes Shapes the Peripheral Mycobacterium tuberculosis Specific CD8+ T-Cell Immune Response in South African Patients with Active Tuberculosis” (PLoS ONE, 2013) come the findings set out here.

Holding throughout (assay type): binding
Assay [1] addresses HLA-B*58:01 (Homo sapiens, UniProt P01889, A329T/C349S/D201E/D98Y/E176V/E187L/E204Q/E69T/G107R/I218V/I90N/K202T/L105A/L119I/N104I/N87E/Q89R/Q94S/R106L/R155S/R180L/R86G/S101N/S121R/S35A/S48A/T118I/V127L/V306I/V36M/Y140S/Y91M). Conditions: percent relative the binding of positive control peptide […]; duplicated experiments; positive binder >40%.
Assay [2] addresses HLA-A*30:02 (Homo sapiens, UniProt P04439, D101N/D140H/D185E/E176R/F33S/G80R/H175R/K168Q/Q94H/R138E/R41S/V100E). Conditions: percent relative the binding of positive control peptide […]; duplicated experiments; positive binder >40%.
In assay [3] the target is HLA-B*07:02 (Homo sapiens, UniProt P01889). Conditions: percent relative the binding of positive control peptide […]; duplicated experiments; positive binder >40%.
For assay [4], the target named is HLA-A*02:01 (Homo sapiens, UniProt P04439, D140Y/D185E/D98H/E176V/E277Q/G131W/G231S/I119V/I121R/I166T/I218V/L300P/L318F/N151K/N90K/P208A/P217A/Q86G/Q94H/R138H/R169H/T345S). Conditions: percent relative the binding of positive control peptide […]; plate-bound monomer 0.5 µg/ml; duplicated experiments; positive binder >40%.
Assay [5] has as its target HLA-A*30:01 (Homo sapiens, UniProt P04439, D140H/D185E/E176W/F33S/G80R/H175R/K168Q/R138E/R41S). Conditions: percent relative the binding of positive control peptide […]; duplicated experiments; positive binder >40%.
In assay [6] the target is HLA-A*24:02 (Homo sapiens, UniProt P04439, D101N/D140Y/D185E/E176V/E190D/F33S/G103R/G107R/I119L/I121M/I306V/K335N/L105A/L180Q/L300P/N151K/N90K/Q86E/Q94H/R106L/R138H/R89G/T104I/T345S/V100E/W191G/Y123F). As to conditions: percent relative the binding of positive control peptide […]; duplicated experiments; positive binder >40%.
The target in assay [7] is HLA-A*68:01 (Homo sapiens, UniProt P04439, A269V/D185E/E176V/E277Q/E87N/F33Y/G231S/I121M/I166T/I218V/L180W/L300P/L318F/N151K/P208A/P217A/Q86R/R169H/T345S). Conditions: percent relative the binding of positive control peptide […]; duplicated experiments; positive binder >40%.
Assay [8] has as its target HLA-C*07:01 (Homo sapiens, UniProt P10321, K90N/S123Y). As to conditions: percent relative the binding of positive control peptide […]; duplicated experiments; positive binder >40%.

For AQLNAMKGD, in assay [1], the “Bind B*58:01” value amounted to 0%. Besides, the “Bind A*30:02” value in assay [2] is given as 56%. Also, the “Bind B*07:02” value in assay [3] was 0%. Further, the “Bind A*02:01” value in assay [4] is reported as 10%. In addition, the “Bind A*30:01” value in assay [5] worked out at 0%. For the same substance, in assay [6], the “Bind A*24:02” value was 29%. The “Bind A*68:01” value in assay [7] was 0%. Moreover, the “Bind C*07:01” value in assay [8] was found to be 3%.
For the substance GGYKAADMW, the “Bind B*58:01” value in assay [1] came to 61%. Moreover, the “Bind A*30:02” value in assay [2] came to 0%. In assay [3], the “Bind B*07:02” value came to 0%. Besides, the “Bind A*02:01” value in assay [4] is 0%. Further, in assay [5], the “Bind A*30:01” value was 0%. For the same substance, the “Bind A*24:02” value in assay [6] was found to be 34%. Further, in assay [7], the “Bind A*68:01” value is 11%. In assay [8], the “Bind C*07:01” value is recorded as 0%.
In the case of CGNGTPNEL, in assay [1], the “Bind B*58:01” value worked out at 0%. Moreover, in assay [2], the “Bind A*30:02” value came to 41%. In assay [3], the “Bind B*07:02” value came out at 0%. In addition, in assay [4], the “Bind A*02:01” value was found to be 20%. In addition, the “Bind A*30:01” value in assay [5] worked out at 0%. Further, in assay [6], the “Bind A*24:02” value is listed as 2%. For the same substance, the “Bind A*68:01” value in assay [7] was found to be 0%. For the same substance, in assay [8], the “Bind C*07:01” value was 28%.
GGNNSPAVY: the “Bind B*58:01” value in assay [1] came out at 0%. The “Bind A*30:02” value in assay [2] is recorded as 90%. Moreover, in assay [3], the “Bind B*07:02” value is listed as 0%. Also, in assay [4], the “Bind A*02:01” value is 0%. Further, the “Bind A*30:01” value in assay [5] is 0%. The “Bind A*24:02” value in assay [6] is reported as 0%. Moreover, the “Bind A*68:01” value in assay [7] is reported as 3%. Further, in assay [8], the “Bind C*07:01” value is 45%.
In the case of NLGAEIAVE [Rv0288_27–35m1], the “Bind A*02:01” value in assay [4] turned out to be 29%.
Regarding KPTGSAAIG, the “Bind B*58:01” value in assay [1] is given as 0%. For the same substance, the “Bind A*30:02” value in assay [2] is given as 0%. Moreover, the “Bind B*07:02” value in assay [3] is 51%. Besides, the “Bind A*02:01” value in assay [4] worked out at 0%. Moreover, in assay [5], the “Bind A*30:01” value was found to be 0%. In assay [6], the “Bind A*24:02” value is on record as 0%. Further, the “Bind A*68:01” value in assay [7] was found to be 0%. For the same substance, the “Bind C*07:01” value in assay [8] is 0%.
ELPQW LSAN: the “Bind B*58:01” value in assay [1] turned out to be 0%. Further, the “Bind A*30:02” value in assay [2] came out at 0%. The “Bind B*07:02” value in assay [3] came out at 16%. Also, in assay [4], the “Bind A*02:01” value amounted to 15%. Also, in assay [5], the “Bind A*30:01” value is 20%. The “Bind A*24:02” value in assay [6] turned out to be 56%. Besides, in assay [7], the “Bind A*68:01” value was 31%. In addition, the “Bind C*07:01” value in assay [8] is recorded as 0%.
As for PVGGQSSFY, the “Bind B*58:01” value in assay [1] is recorded as 0%. In assay [2], the “Bind A*30:02” value is reported as 82%. In assay [3], the “Bind B*07:02” value is listed as 0%. For the same substance, the “Bind A*02:01” value in assay [4] was 0%. The “Bind A*30:01” value in assay [5] is listed as 0%. Further, the “Bind A*24:02” value in assay [6] is on record as 0%. Besides, in assay [7], the “Bind A*68:01” value was found to be 0%. The “Bind C*07:01” value in assay [8] was 0%.
As for YNYPAMLDH [Rv0288_6–14m2], in assay [8], the “Bind C*07:01” value is 0%.
For NT RLW V Y CG, in assay [1], the “Bind B*58:01” value is 0%. Also, in assay [2], the “Bind A*30:02” value worked out at 49%. Besides, the “Bind B*07:02” value in assay [3] came to 0%. In addition, the “Bind A*02:01” value in assay [4] is reported as 0%. Moreover, in assay [5], the “Bind A*30:01” value is 27%. For the same substance, the “Bind A*24:02” value in assay [6] came to 0%. Also, the “Bind A*68:01” value in assay [7] turned out to be 0%. Besides, the “Bind C*07:01” value in assay [8] is on record as 0%.
For the substance LDPSQGMGP, the “Bind B*58:01” value in assay [1] stood at 12%. The “Bind A*30:02” value in assay [2] came out at 0%. Besides, the “Bind B*07:02” value in assay [3] was 43%. Also, the “Bind A*02:01” value in assay [4] is 41%. In addition, the “Bind A*30:01” value in assay [5] is 32%. In assay [6], the “Bind A*24:02” value worked out at 12%. Also, the “Bind A*68:01” value in assay [7] was found to be 0%. In addition, the “Bind C*07:01” value in assay [8] was found to be 18%.
Regarding LKFQDAYNA, the “Bind B*58:01” value in assay [1] was 9%. Further, the “Bind A*30:02” value in assay [2] is 91%. Besides, the “Bind B*07:02” value in assay [3] turned out to be 0%. In addition, in assay [4], the “Bind A*02:01” value came to 17%. Further, the “Bind A*30:01” value in assay [5] is given as 0%. The “Bind A*24:02” value in assay [6] is on record as 0%. For the same substance, the “Bind A*68:01” value in assay [7] is given as 0%. The “Bind C*07:01” value in assay [8] turned out to be 53%.
With DINTPAFEW, the “Bind B*58:01” value in assay [1] was determined as 58%. In assay [2], the “Bind A*30:02” value is on record as 0%. The “Bind B*07:02” value in assay [3] was found to be 9%. For the same substance, in assay [4], the “Bind A*02:01” value came to 0%. The “Bind A*30:01” value in assay [5] turned out to be 7%. The “Bind A*24:02” value in assay [6] is reported as 56%. Further, in assay [7], the “Bind A*68:01” value amounted to 3%. Moreover, the “Bind C*07:01” value in assay [8] is 10%.
As for GTPNELGGA, in assay [1], the “Bind B*58:01” value turned out to be 0%. Also, in assay [2], the “Bind A*30:02” value worked out at 0%. For the same substance, the “Bind B*07:02” value in assay [3] amounted to 0%. The “Bind A*02:01” value in assay [4] turned out to be 49%. Also, the “Bind A*30:01” value in assay [5] is listed as 0%. Further, the “Bind A*24:02” value in assay [6] was found to be 0%. Further, the “Bind A*68:01” value in assay [7] is reported as 0%. Further, the “Bind C*07:01” value in assay [8] worked out at 0%.
